Assay results reported in the NIST ThermoML archive (doi:10.1016/j.jct.2015.12.025).
± gives the expanded uncertainty stated by the source.

Assay: xn = mol fraction of the nth substance listed
Settings: 102 kPa, Liquid, Vibrating tube method

SMILES: C[Si]1(CCC(F)(F)F)O[Si](C)(CCC(F)(F)F)O[Si](C)(CCC(F)(F)F)O1 (stereo not given) + COc1ccccc1
- mass density (308.15 K, x1 = 0.0502): 1018.9 ± 1 kg/m3
- mass density (308.15 K, x1 = 0.0999): 1050.1 ± 1 kg/m3
- mass density (308.15 K, x1 = 0.15): 1076.1 ± 1 kg/m3
- mass density (308.15 K, x1 = 0.1999): 1097.79 ± 1 kg/m3
- mass density (308.15 K, x1 = 0.2501): 1116.38 ± 1 kg/m3
- mass density (308.15 K, x1 = 0.2998): 1132.25 ± 1 kg/m3
- mass density (308.15 K, x1 = 0.3498): 1146.05 ± 1 kg/m3
- mass density (308.15 K, x1 = 0.4001): 1158.32 ± 1 kg/m3
- mass density (308.15 K, x1 = 0.4497): 1169.15 ± 1 kg/m3
- mass density (308.15 K, x1 = 0.4997): 1178.65 ± 1 kg/m3
- mass density (308.15 K, x1 = 0.5453): 1186.4 ± 1 kg/m3
- mass density (308.15 K, x1 = 0.6001): 1194.94 ± 1 kg/m3
- mass density (308.15 K, x1 = 0.6498): 1201.9 ± 1 kg/m3
- mass density (308.15 K, x1 = 0.6995): 1208.15 ± 1 kg/m3
- mass density (308.15 K, x1 = 0.7502): 1214.01 ± 1 kg/m3
- mass density (308.15 K, x1 = 0.8): 1219.27 ± 1 kg/m3
- mass density (308.15 K, x1 = 0.8491): 1223.97 ± 1 kg/m3
- mass density (308.15 K, x1 = 0.8997): 1228.56 ± 1 kg/m3
- mass density (308.15 K, x1 = 0.9497): 1232.67 ± 1 kg/m3
- mass density (308.15 K, x1 = 1): 1236.63 ± 1 kg/m3
- mass density (313.15 K, x1 = 0.0502): 1013.91 ± 1 kg/m3
- mass density (313.15 K, x1 = 0.0999): 1044.97 ± 1 kg/m3
- mass density (313.15 K, x1 = 0.15): 1070.73 ± 1 kg/m3
- mass density (313.15 K, x1 = 0.1999): 1092.31 ± 1 kg/m3
- mass density (313.15 K, x1 = 0.2501): 1110.76 ± 1 kg/m3
- mass density (313.15 K, x1 = 0.2998): 1126.52 ± 1 kg/m3
- mass density (313.15 K, x1 = 0.3498): 1140.29 ± 1 kg/m3
- mass density (313.15 K, x1 = 0.4001): 1152.45 ± 1 kg/m3
- mass density (313.15 K, x1 = 0.4497): 1163.11 ± 1 kg/m3
- mass density (313.15 K, x1 = 0.4997): 1172.56 ± 1 kg/m3
- mass density (313.15 K, x1 = 0.5453): 1180.31 ± 1 kg/m3
- mass density (313.15 K, x1 = 0.6001): 1188.71 ± 1 kg/m3
- mass density (313.15 K, x1 = 0.6498): 1195.72 ± 1 kg/m3
- mass density (313.15 K, x1 = 0.6995): 1201.84 ± 1 kg/m3
- mass density (313.15 K, x1 = 0.7502): 1207.72 ± 1 kg/m3
- mass density (313.15 K, x1 = 0.8): 1212.9 ± 1 kg/m3
- mass density (313.15 K, x1 = 0.8491): 1217.59 ± 1 kg/m3
- mass density (313.15 K, x1 = 0.8997): 1222.13 ± 1 kg/m3
- mass density (313.15 K, x1 = 0.9497): 1226.23 ± 1 kg/m3
- mass density (313.15 K, x1 = 1): 1230.05 ± 1 kg/m3
- mass density (318.15 K, x1 = 0.0502): 1008.94 ± 1 kg/m3
- mass density (318.15 K, x1 = 0.0999): 1039.74 ± 1 kg/m3
- mass density (318.15 K, x1 = 0.15): 1065.35 ± 1 kg/m3
- mass density (318.15 K, x1 = 0.1999): 1086.77 ± 1 kg/m3
- mass density (318.15 K, x1 = 0.2501): 1105.11 ± 1 kg/m3
- mass density (318.15 K, x1 = 0.2998): 1120.84 ± 1 kg/m3
- mass density (318.15 K, x1 = 0.3498): 1134.47 ± 1 kg/m3
- mass density (318.15 K, x1 = 0.4001): 1146.5 ± 1 kg/m3
- mass density (318.15 K, x1 = 0.4497): 1156.93 ± 1 kg/m3
- mass density (318.15 K, x1 = 0.4997): 1166.57 ± 1 kg/m3
- mass density (318.15 K, x1 = 0.5453): 1174.14 ± 1 kg/m3
- mass density (318.15 K, x1 = 0.6001): 1182.53 ± 1 kg/m3
- mass density (318.15 K, x1 = 0.6498): 1189.43 ± 1 kg/m3
- mass density (318.15 K, x1 = 0.6995): 1195.66 ± 1 kg/m3
- mass density (318.15 K, x1 = 0.7502): 1201.45 ± 1 kg/m3
- mass density (318.15 K, x1 = 0.8): 1206.52 ± 1 kg/m3
- mass density (318.15 K, x1 = 0.8491): 1211.19 ± 1 kg/m3
- mass density (318.15 K, x1 = 0.8997): 1215.62 ± 1 kg/m3
- mass density (318.15 K, x1 = 0.9497): 1219.73 ± 1 kg/m3
- mass density (318.15 K, x1 = 1): 1223.55 ± 1 kg/m3
- mass density (323.15 K, x1 = 0.0502): 1003.9 ± 1 kg/m3
- mass density (323.15 K, x1 = 0.0999): 1034.53 ± 1 kg/m3
- mass density (323.15 K, x1 = 0.15): 1059.95 ± 1 kg/m3
- mass density (323.15 K, x1 = 0.1999): 1081.24 ± 1 kg/m3
- mass density (323.15 K, x1 = 0.2501): 1099.47 ± 1 kg/m3
- mass density (323.15 K, x1 = 0.2998): 1115.01 ± 1 kg/m3
- mass density (323.15 K, x1 = 0.3498): 1128.62 ± 1 kg/m3
- mass density (323.15 K, x1 = 0.4001): 1140.45 ± 1 kg/m3
- mass density (323.15 K, x1 = 0.4497): 1151 ± 1 kg/m3
- mass density (323.15 K, x1 = 0.4997): 1160.21 ± 1 kg/m3
- mass density (323.15 K, x1 = 0.5453): 1168.04 ± 1 kg/m3
- mass density (323.15 K, x1 = 0.6001): 1176.37 ± 1 kg/m3
- mass density (323.15 K, x1 = 0.6498): 1183.1 ± 1 kg/m3
- mass density (323.15 K, x1 = 0.6995): 1189.14 ± 1 kg/m3
- mass density (323.15 K, x1 = 0.7502): 1194.99 ± 1 kg/m3
- mass density (323.15 K, x1 = 0.8): 1200.09 ± 1 kg/m3
- mass density (323.15 K, x1 = 0.8491): 1204.79 ± 1 kg/m3
- mass density (323.15 K, x1 = 0.8997): 1209.23 ± 1 kg/m3
- mass density (323.15 K, x1 = 0.9497): 1213.21 ± 1 kg/m3
- mass density (323.15 K, x1 = 1): 1216.99 ± 1 kg/m3
